Measurements as given in US20170029436A1, “NEOSORAPHENS” (Helmoltz-Zentrum für Infektionsforschung GmbH, priority 2014, published 2017).

What was measured:
[1] = system: genotype 2a (Jc1 chimera) HCVcc virus; test: HCV cell-culture (HCVcc) infection assay, Luc-Jc1 luciferase reporter in Huh7/Scr cells; type: cell-based; settings: for EC50: Hepatitis C virus, Huh-7, 72 h, read-out: EC50 (antiviral activity, HCV infection); for SI (Selectivity Index): calculated from EC50 and CC50
Protocol: (§1) To assess the inhibitory effects of Neosoraphens on HCV infection, a HCV cell-culture (HCVcc) system^[1-3] was used. Unless otherwise stated, Huh7/Scr cells (provided by F. Chisari, The Scripps Research Institute, La Jolla, Calif.) which are highly permissive for HCV propagation in vitro were employed. The experiments were performed in the context of genotype 2a (Jc1 chimera^[4]) HCVcc virus. To facilitate the quantification of infection, the bicistronic Jc1 luciferase reporter construct, designated Luc-Jc1^[5], was used. The commercial ACC inhibitor 5-(Tetradecyloxy)-2-furoic acid (TOFA), which has been previously described to inhibit HCV replication^[6], was chosen for comparison of the antiviral activities of the Neosoraphens. The NS3-4A serine protease inhibitor VX-950^[7], a known HCV replication inhibitor, was used as positive control. Briefly, Huh7/Scr cells were seeded at a density of 1.2×10^4 cells/well in 96-well plates. One day later cells were pre-incubated for 1 h at 37° C. with the compounds and then inoculated with the virus and the compounds for 4 h at 37° C. Finally, virus-containing media was replaced by a fresh media-compounds mix. Firefly luciferase activities were assayed 72 h post infection with the Dual-Glo® Luciferase Assay System while cytotoxicity (viability) assays were carried out with the CytoTox-Glo™ Cytotoxicity Assay (both purchased from Promega Corporation, Madison, Wis.), according to manufacturer's instructions, using a plate luminometer FLUOstar OPTIMA (BMG LABTECH, Ortenberg, Germany). Mean relative light units (RLU) were plotted as percentage relative to control infections (solvent without compounds) for both infectivity and cell viability. Infections were carried out in triplicates and measured in duplicates (mean±SEM; n=6). Half maximal effective concentration (EC50) and half maximal cytotoxic concentration 50 (CC50) were estimated by non-linear regression of log inhibitor vs. normalized response and used to calculate the Selectivity Index (SI) value.

[2] = CytoTox-Glo cytotoxicity (viability) assay; type: cell-based; settings: human, Huh7/Scr cells, read-out: CC50 (half maximal cytotoxic concentration)
Protocol: as §1

[3] = system: Naive mouse CD4+ T cells under Th17 conditions; test: In vitro Th17 differentiation of naive CD4+ T cells (IL-17A+ cells by flow cytometry); type: cell-based; settings: 4 days under Th17 conditions, FIG. 1A; for percentage of IL-17A producing T-cells (inhibition of Th17 differentiation): varying concentrations
Protocol: (§2) Single cell suspensions were prepared and pooled from the spleen, mesenteric and peripheral lymph nodes of adult C57BL/6 mice by filtering the crushed organs through a 70 μm cell-strainer. Naïve CD4+CD25^−CD62L+ T cells were subsequently isolated from these suspensions using the CD4+CD25^−CD62L+ T cell isolation Kit II and AutoMACS according to the manufacturer's protocol (Miltenyi Biotec) or by FACS sorting. Purified T cells were cultured under classic Th17 inducing conditions (Bettelli et al., Nature 441(7090): 235-8 (2006)). In detail, the cells were cultured in 96 well flat bottom plates (3×10^5 cells per well), that were precoated with 10 μg/ml anti-CD3 Antibody (clone 145-2C11, BioXcell) in the presence of antibodies against CD28 (1 μg/ml, clone 37.51, BioXcell), IFN-γ (5 μg/ml, clone XMG1.2, BioXcell) and IL-4 (5 μg/ml, clone 11B11, BioXcell) as well as in the presence of TGFβ1 (2 ng/ml, R&D), IL-6 (5 ng/ml, R&D) and IL-1β (50 ng/ml, R&D) in IMDM Medium (supplemented with 10% FCS+500 U PenStrep+50 μM β-Mercaptoethanol). To these cultures, increasing concentrations of ACC Inhibitors Soraphen A or 5-(Tetradecyloxy)-2-furoic acid (TOFA) (both dissolved in DMSO) were added on day 0 and cultured for up to 4 days in an cell culture incubator (37° C. and 5% CO2). As control, cells were cultured in the presence of DMSO only.
(§3) Were indicated, cells from Th17 cultures were restimulated with 100 ng/ml phorbol 12-myristate 13-acetate (Sigma) and 1 μg/ml Inonomycin (Sigma) for 4 h and Brefeldin A (1:1000, Sigma) was added for the last 2 h of restimulation. After restimulation, cells were harvested for flow cytometry. For surface staining: fluorophore-labelled mAbs aginst CD3ε and CD4 were obtained from eBiosciences. For intracellular staining, cells were fixed with Fix/Perm (eBioscience) according to the manufacturer's protocol, and stained intracellular with fluorophore-labelled mAbs directed against IL-17A and Foxp3 (eBiosciences). Cells were run on a flow cytometer (CyAn, Beckman Coulter) and data was analysed on FlowJo (TreeStar) software.
(§4) To isolate naive CD4+CD25^−CD62L+ T cells by FACS-sorting, lymphocyte suspensions were surface-stained with fluorophore-labelled mAbs aginst CD4, CD25 and CD62L (all from ebioscience) and live CD4+CD25^−CD62L+ T cells were sorted to >98% purity using a Moflo (Beckman Coulter) or FACS ARIAII (BD Biosciences) cell sorter.
(§5) Naive mouse CD4^+ T cells were cultured for 4 days under Th17 conditions in the presence of varying concentrations of the compounds of the invention. As control, cells were cultured in the presence of DMSO only (negative control) or ACC inhibitor Soraphen A (positive control). After 4 days, cells were restimulated with PMA/Ionomycin for 4 h and Brefeldin A for 2 h and further analysed by flow cytometry.

[4] = system: Naive mouse CD4+ T cells under Th17 conditions; test: Induction of Foxp3+ Treg differentiation in Th17 cultures (flow cytometry); type: cell-based; settings: 4 days under Th17 conditions, varying concentrations, FIG. 1B
Protocol: as §2, §3, §4, §5

rotavirus (RV) = settings: Gaunt et al., J Gen Virol 2013; cited from earlier work

SMILES	EC50 [1] [nM]	SI (Selectivity Index) [1]	CC50 at 72 h [2] [nM]	percentage of IL-17A producing T-cells (inhibition of Th17 differentiation) [3]	differentiation of Foxp3+ Treg cells [4]	reduction of infectivity of progeny rotavirus (rotavirus (RV)) [fold]	reduction of viral RNA production (rotavirus (RV)) [fold]	EC50 ([3]; read-out: EC50 for decrease of IL-17A producing T-cells) [nM]
COC1CCCCC(c2ccccc2)OC(=O)CC2(O)CC(O)C(C)C(O2)C(C)CCC1OC (stereo not shown) [Neosoraphen M478]	1.52	64961	98700	Inhibition of Th17	induction of Treg differentiation	–	–	–
CCC[C@H](NC(=O)[C@@H]1[C@H]2CCC[C@H]2CN1C(=O)[C@@H](NC(=O)[C@@H](NC(=O)c1cnccn1)C1CCCCC1)C(C)(C)C)C(=O)C(=O)NC1CC1 [VX-950, reference compound]	18.9	4995	94500	–	–	–	–	–
COC1/C=C/C(C)C2OC(O)(CC(=O)OC(c3ccccc3)CCCCC1OC)CC(O)C2C (stereo not shown) [Neosoraphen M476]	2.09	95072	199000	Inhibition of Th17	induction of Treg differentiation	–	–	–
COC1CCCCC(c2ccccc2)OC(=O)CC2(O)CC(O)C(C)C(O2)C(C)CCC1O (stereo not shown) [Neosoraphen M464]	46	1136	52200	Inhibition of Th17	induction of Treg differentiation	–	–	–
CCCCCCCCCCCCCCOc1ccc(C(=O)O)o1 [TOFA, 5-(Tetradecyloxy)-2-furoic acid, reference compound]	1010	34	33900	–	–	31	6	–
COC1CCCCC(c2ccccc2)OC(=O)CC2(O)CC(O)C(C)C(O2)C(C)/C=C/C1O (stereo not shown) [Neosoraphen M462]	7.74	1752	13600	Inhibition of Th17	induction of Treg differentiation	–	–	–
CO[C@H]1CCCC[C@@H](c2ccccc2)OC(=O)[C@@H](C)[C@@]2(O)O[C@H]([C@@H](C)[C@H](O)[C@H]2OC)[C@@H](C)/C=C/[C@H]1OC [Soraphen A, reference compound]	–	–	–	decreases the percentage of IL-17A producing T-cells in a dose dependent manner	induces the reciprocal differentiation of Foxp3+ Treg cells	–	–	40
COC1CCCCC(c2ccccc2)OC(=O)CC2(O)CC(O)C(C)C(O2)C(C)C(O)CC1O (stereo not shown) [Neosoraphen M480]	65.7	693	45500	–	–	–	–	–
